Bounds are passed on as bounds.

The target in one assay is human orexin receptor 2 (Homo sapiens (Human), UniProt O43614). The assay is described as follows: Orexin antagonist activity, intracellular calcium FLIPR assay, RBL-2H3 cells expressing human orexin receptor 2. The class given is cell-based. Particulars: RBL-2H3 cells stably expressing human orexin receptor 2; orexin-A at approx. 80% maximal response; compound added 15 minutes before; read-out: Human Orexin2R IC50.

The target of a further assay is human orexin receptor 1 (Homo sapiens (Human), UniProt O43613). The experiment in a line: Orexin antagonist activity, intracellular calcium FLIPR assay, RBL-2H3 cells expressing human orexin receptor 1. It is filed as cell-based. Particulars: RBL-2H3 cells stably expressing human orexin receptor 1; orexin-A at approx. 80% maximal response; compound added 15 minutes before; read-out: Human Orexin1R IC50.
human orexin receptor 1, sequence (O43613 whole entry): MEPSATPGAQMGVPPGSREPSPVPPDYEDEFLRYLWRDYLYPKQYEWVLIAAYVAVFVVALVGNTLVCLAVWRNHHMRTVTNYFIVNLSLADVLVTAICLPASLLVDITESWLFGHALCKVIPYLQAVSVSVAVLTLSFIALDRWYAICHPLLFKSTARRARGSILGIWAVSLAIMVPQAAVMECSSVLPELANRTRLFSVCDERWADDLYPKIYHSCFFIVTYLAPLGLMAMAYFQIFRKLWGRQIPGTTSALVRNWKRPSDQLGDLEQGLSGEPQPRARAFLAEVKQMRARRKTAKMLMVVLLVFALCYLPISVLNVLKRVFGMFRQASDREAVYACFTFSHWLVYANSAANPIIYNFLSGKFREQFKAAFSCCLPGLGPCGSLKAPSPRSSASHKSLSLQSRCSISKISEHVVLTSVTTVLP

human orexin receptor 2, sequence (O43614 whole entry): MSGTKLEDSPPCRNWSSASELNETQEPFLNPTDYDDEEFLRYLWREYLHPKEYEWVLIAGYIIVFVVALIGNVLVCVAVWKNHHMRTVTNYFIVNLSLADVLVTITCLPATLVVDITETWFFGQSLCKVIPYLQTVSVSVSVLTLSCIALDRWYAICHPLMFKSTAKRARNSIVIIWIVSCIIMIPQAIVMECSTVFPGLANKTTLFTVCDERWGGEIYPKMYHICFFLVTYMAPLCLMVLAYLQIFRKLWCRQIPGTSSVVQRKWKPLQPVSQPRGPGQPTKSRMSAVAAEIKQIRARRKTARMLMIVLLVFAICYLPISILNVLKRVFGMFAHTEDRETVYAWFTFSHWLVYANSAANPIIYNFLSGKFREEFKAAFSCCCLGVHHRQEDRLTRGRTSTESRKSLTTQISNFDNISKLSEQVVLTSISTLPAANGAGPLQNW

`O=C(N[C@H]1CCC[C@@H]1Nc1ncc(C(F)(F)F)cc1F)c1ccccc1-c1ncccn1` [Example 138, N-[(1S,2S)-2-{[3-Fluoro-5-(trifluoromethyl)pyridin-2-yl]amino}cyclopentyl]-2-(pyrimidin-2-yl)benzamide]: the values for the half-maximal inhibitory concentration (IC50) on human orexin receptor 2 and on human orexin receptor 1 were above 10000 nM and 30 nM, respectively.

As to `O=C(N[C@H]1CCC[C@H]1Oc1cnc(C(F)(F)F)cn1)c1ccccc1-n1nccn1` [Example 19, 2-(2H-1,2,3-Triazol-2-yl)-N-[(1S,2R)-2-{[5-(trifluoromethyl)pyrazin-2-yl]oxy}cyclopentyl]benzamide], the values for the 50% inhibitory concentration (IC50) on human orexin receptor 2 and on human orexin receptor 1 were 6100 nM and 757 nM, respectively.

As for `Cc1ccc(-n2nccn2)c(C(=O)N[C@H]2CCC[C@@H]2Nc2ccc(C(F)(F)F)nc2)c1` [Example 67, 5-Methyl-2-(2H-1,2,3-triazol-2-yl)-N-[(1S,2S)-2-{[6-(trifluoromethyl)pyridin-3-yl]amino}cyclopentyl]benzamide], the IC50 on human orexin receptor 2 is above 10000 nM; at human orexin receptor 1, 891 nM.

Turning to `O=C(NC1CC(F)(F)CC1Nc1ccc(C(F)(F)F)cn1)c1ccccc1-n1nccn1` (single isomer, unassigned) [Example 128, N-(4,4-Difluoro-2-{[5-(trifluoromethyl)pyridin-2-yl]amino}cyclopentyl)-2-(2H-1,2,3-triazol-2-yl)benzamide], the IC50 on human orexin receptor 2 was above 10000 nM; at human orexin receptor 1, 33 nM.

Regarding `Cc1nc(C(F)(F)F)cnc1N[C@H]1CCC[C@@H]1NC(=O)c1ccccc1-c1ncccn1` [Example 79, N-[(1S,2S)-2-{[3-Methyl-5-(trifluoromethyl)pyrazin-2-yl]amino}cyclopentyl]-2-(pyrimidin-2-yl)benzamide], the IC50 is above 10000 nM on human orexin receptor 2 and 35 nM on human orexin receptor 1.

Turning to `CC1(Nc2ncc(C(F)(F)F)cn2)CCCC1NC(=O)c1ncccc1-c1ncccn1` (stereo not drawn) [Example 153, N-(2-Methyl-2-{[5-(trifluoromethyl)pyrimidin-2-yl]amino}cyclopentyl)-3-(pyrimidin-2-yl)pyridine-2-carboxamide], the IC50 on human orexin receptor 2 is above 10000 nM; at human orexin receptor 1, 66 nM.

Regarding `O=C(N[C@H]1CCC[C@@H]1Nc1cnc(C(F)(F)F)cn1)c1cc(Cl)ccc1-n1cccn1` [Example 59, 5-Chloro-2-(1H-pyrazol-1-yl)-N-[(1S,2S)-2-{[5-(trifluoromethyl)pyrazin-2-yl]amino}cyclopentyl]benzamide], the IC50 was above 10000 nM on human orexin receptor 2 and 161 nM on human orexin receptor 1.

In the case of `C[C@]1(Nc2cnc(C(F)(F)F)cn2)CCC[C@@H]1NC(=O)c1ccccc1-c1ncccn1` [Example 91, N-[(1S,2S)-2-Methyl-2-{[5-(trifluoromethyl)pyrazin-2-yl]amino}cyclopentyl]-2-(pyrimidin-2-yl)benzamide], the IC50 at human orexin receptor 2 is above 10000 nM; on human orexin receptor 1, 6 nM.

With `COc1cccc(OC)c1C(=O)N[C@H]1CCC[C@@H]1Oc1cc(C(F)(F)F)ccn1` [Example 21, 2,6-Dimethoxy-N-[(1S,2S)-2-{[4-(trifluoromethyl)pyridin-2-yl]oxy}cyclopentyl]benzamide], the half-maximal inhibitory concentration (IC50) amounted to 6420 nM at human orexin receptor 2 and 576 nM at human orexin receptor 1.

On to `CN(c1cnc(C(F)(F)F)cn1)[C@H]1CCC[C@@H]1NC(=O)c1cc(F)ccc1-n1nccn1` [Example 74, 5-Fluoro-N-[(1S,2S)-2-{methyl[5-(trifluoromethyl)pyrazin-2-yl]amino}cyclopentyl]-2-(2H-1,2,3-triazol-2-yl)benzamide], for which the IC50 at human orexin receptor 2 was above 10000 nM; at human orexin receptor 1 it was 308 nM.

On to `COc1cccc(OC)c1C(=O)N[C@H]1CCC[C@@H]1Nc1cccc(C(F)(F)F)n1` [Example 27, 2,6-Dimethoxy-N-[(1S,2S)-2-{[6-(trifluoromethyl)pyridin-2-yl]amino}cyclopentyl]benzamide], for which the results for the half-inhibitory concentration (IC50) on human orexin receptor 2 and on human orexin receptor 1 were 2000 nM and 726 nM, respectively.

In the case of `O=C(N[C@H]1CCC[C@@H]1Nc1cnc(C(F)(F)F)cn1)c1cc(F)ccc1-c1ncccn1` [Example 39, 5-Fluoro-2-(pyrimidin-2-yl)-N-[(1S,2S)-2-{[5-(trifluoromethyl)pyrazin-2-yl]amino}cyclopentyl]benzamide], the results for the IC50 on human orexin receptor 2 and at human orexin receptor 1 were above 10000 nM and 81 nM, respectively.

`O=C(N[C@H]1CCC[C@@H]1Nc1ncc(C(F)(F)F)nc1C1CC1)c1ccccc1-n1nccn1` [Example 109, N-[(1S,2S)-2-{[3-Cyclopropyl-5-(trifluoromethyl)pyrazin-2-yl]amino}cyclopentyl]-2-(2H-1,2,3-triazol-2-yl)benzamide]: the IC50 on human orexin receptor 2 is above 10000 nM; on human orexin receptor 1, 21 nM.

`COc1cccc(OC)c1C(=O)N(C1CCC1)[C@H]1CCC[C@@H]1Nc1ccc(C(F)(F)F)cn1` [Example 68, N-Cyclobutyl-2,6-dimethoxy-N-[(1S,2S)-2-{[5-(trifluoromethyl)pyridin-2-yl]amino}cyclopentyl]benzamide]: the IC50 at human orexin receptor 2 is 1610 nM; at human orexin receptor 1, 297 nM.

For the molecule `CC(C)c1cnc(N[C@H]2CCC[C@@H]2NC(=O)c2ccccc2-n2nccn2)cn1` [Example 113, N-[(1S,2S)-2-{[5-(Propan-2-yl)pyrazin-2-yl]amino}cyclopentyl]-2-(2H-1,2,3-triazol-2-yl)benzamide], the IC50 on human orexin receptor 2 was above 10000 nM; on human orexin receptor 1 it was 67 nM.

For the molecule `C[C@]1(Nc2cnc(C(F)(F)F)cn2)CCC[C@@H]1NC(=O)c1ncccc1-n1cccn1` [Example 85, N-[(1S,2S)-2-Methyl-2-{[5-(trifluoromethyl)pyrazin-2-yl]amino}cyclopentyl]-3-(1H-pyrazol-1-yl)pyridine-2-carboxamide], the 50% inhibitory concentration (IC50) at human orexin receptor 2 was above 10000 nM; at human orexin receptor 1, 18 nM.

As for `O=C(N[C@H]1CCC[C@@H]1Nc1ccc(C(F)(F)F)cn1)c1cc(Cl)ccc1-n1nccn1` [Example 97, 5-Chloro-2-(2H-1,2,3-triazol-2-yl)-N-[(1S,2S)-2-{[5-(trifluoromethyl)pyridin-2-yl]amino}cyclopentyl]benzamide], the IC50 on human orexin receptor 2 is above 10000 nM; at human orexin receptor 1, 122 nM.

Regarding `O=C(N[C@H]1CC(F)(F)C[C@@H]1Nc1ncc(C(F)(F)F)cc1F)c1ccccc1-n1nccn1` [Example 132, N-[(1S,2S)-4,4-Difluoro-2-{[3-fluoro-5-(trifluoromethyl)pyridin-2-yl]amino}cyclopentyl]-2-(2H-1,2,3-triazol-2-yl)benzamide], the figures for the IC50 on human orexin receptor 2 and on human orexin receptor 1 were above 10000 nM and 12 nM, respectively.

For the molecule `Cc1ccc(-n2ccnn2)c(C(=O)N[C@H]2CCC[C@@H]2Nc2cnc(C(F)(F)F)cn2)c1` [Example 42, 5-Methyl-2-(1H-1,2,3-triazol-1-yl)-N-[(1S,2S)-2-{[5-(trifluoromethyl)pyrazin-2-yl]amino}cyclopentyl]benzamide], the IC50 on human orexin receptor 2 is above 10000 nM; on human orexin receptor 1, 261 nM.

`O=C(N[C@H]1CCC[C@@H]1Nc1cnc(C(F)(F)F)cn1)c1ccccc1C(F)F` [Example 65, 2-(Difluoromethyl)-N-[(1S,2S)-2-{[5-(trifluoromethyl)pyrazin-2-yl]amino}cyclopentyl]benzamide]: the IC50 at human orexin receptor 2 was above 10000 nM; at human orexin receptor 1, 797 nM.

Turning to `Cc1ccc(-n2nccn2)c(C(=O)N[C@H]2CCC[C@@H]2Nc2cnc(Cl)cn2)c1` [Example 9, N-[(1S,2S)-2-[(5-Chloropyrazin-2-yl)amino]cyclopentyl]-5-methyl-2-(2H-1,2,3-triazol-2-yl)benzamide], the concentration for half-maximal inhibition (IC50) is above 10000 nM at human orexin receptor 2 and 340 nM at human orexin receptor 1.

(Values after patent US9156829B2, “Cycloalkyl and heterocycloalkyl compounds as orexin receptor antagonists” (Takeda Pharmaceutical Company Limited, priority 2014, dated 2015).)
